# How the values were obtained:
# [1] = tested on: Phorbol Ester-Induced Mouse Ear Swelling Model; assay: Phorbol ester-induced mouse ear swelling model; format: in vivo, SPF ICR mice; conditions: 6 h after modeling; for Right ear (ear thickness): phorbol ester 5 μg/20 μL/ear, drug 20 μL/ear 30 min before and 15 min after modeling, thickness gauge; for Swelling degree: right minus left ear thickness, drug 20 μL/ear in DMSO 30 min before and 15 min after modeling; for Inhibition rate of the swelling: vs. model group, ear thickness
# Description: 1. Therapeutic Effects of the Compound Pharmaceutical Composition of the Disclosure on a Phorbol Ester-Induced Mouse Ear Swelling Model
# SPF ICR mice, male, 18-22 g, randomly divided into compound groups with different compound ratios and a model group according to body weight, 10 mice for each group. The test drug is dissolved in a 20 μL solvent of DMSO. The specific group numbers are as follows:
# (1) Compound groups with different compound ratios
# Tofacitinib:crisaborole=2 mg:2 mg/20 μL (dose ratio=1:1; group a); tofacitinib:crisaborole=2 mg:1 mg/20 μL (dose ratio=2:1; group b); tofacitinib:crisaborole=2 mg:0.5 mg/20 μL (dose ratio=4:1; group c); tofacitinib:crisaborole=2 mg:0.25 mg/20 μL (dose ratio=8:1; group d); tofacitinib:crisaborole=2 mg:0.2 mg/20 μL (dose ratio=10:1; group e); tofacitinib:crisaborole=2 mg:0.125 mg/20 μL (dose ratio=16:1; group f); tofacitinib:crisaborole=1 mg: 2 mg/20 μL (dose ratio=1:2; group g); tofacitinib:crisaborole=0.5 mg:2 mg/20 μL (dose ratio=1:4; group h); tofacitinib:crisaborole=0.25 mg:2 mg/20 μL (dose ratio=1:8; group i); tofacitinib:crisaborole=0.2 mg:2 mg/20 μL (dose ratio=1:10; group j); tofacitinib:crisaborole=0.125 mg:2 mg/20 μL (dose ratio=1:16; group k). (2) Model Group (3) Crisaborole (4 mg/20 ul) (4) Tofacitinib (4 mg/20 ul) (5) Blank group: applying with 20 μL DMSO as a solvent for comparison. Experimental Method:
# For the mice of each group, 20 ul (5 μg/20 μL/ear) of phorbol ester is applied to the front and back of the right ear for modeling, and 20 μL solvent medium (acetone) is applied to the left ear; except for the model group, the right ears of the mice in each administration group are applied with corresponding drugs 20 μL/ear 30 minutes before and 15 minutes after modeling, respectively. 6 h after modeling, the ear swelling is measured with a thickness gauge as an indicator of inflammation; then, the animals are sacrificed, the ears are cut and punched with a 6 mm punch, the ear pieces are weighed, and the swelling degree (weight) is calculated.
# atopic dermatitis = conditions: topical 2% tofacitinib, clinical phase II; cited from earlier work
SMILES,Right ear (ear thickness) [1],Swelling degree [1],Inhibition rate of the swelling [1] [%],itching symptoms in patients (atopic dermatitis),therapeutic effect on atopic dermatitis (atopic dermatitis)
"N#Cc1ccc(Oc2ccc3c(c2)COB3O)cc1 [Crisaborole, crisaborole]",43.0 ± 3.7 10^−2 mm,13.3 ± 3.4^Δ 10^−2 mm,30.0,,
"C[C@@H]1CCN(C(=O)CC#N)C[C@@H]1N(C)c1ncnc2[nH]ccc12 [Tofacitinib, tofacitinib]",41.6 ± 3.4 10^−2 mm,12.4 ± 3.2^ΔΔ 10^−2 mm,34.7,can improve itching symptoms in patients,a certain therapeutic effect on atopic dermatitis

# Source: US11318151B2, “Compound pharmaceutical composition for treating skin inflammatory diseases” (Hefei Industrial Pharmaceutical Institute Co., Ltd., priority 2018, dated 2022)
